Key:
[1] = tested on: P. aeruginosa strain CFS-1292; assay type: cell-based, Pseudomonas aeruginosa
[2] = tested on: Gram-negative with varying susceptibility to imipenem and relebactam; experiment: MIC against CDC Imipenem/Relebactam panel (n = 28); assay type: cell-based
Description: MIC values were determined using the methodology described above, i.e., the standard broth microdilution reference method defined by CLSI.
See wwwn.cdc.gov/ARIsolateBank/Panel/PanelDetail?ID=10.

For “MRLKMARRRYRLPRRRSRRLFSRTALRMHPRNRLRRIMRGGIRF [Chp2]”, the “frequency (spontaneous resistance)” value ([1]; CAA media with agent at 4×MIC, resistant colonies after 48 hours / total CFUs) was less than 1.25E−09, the MIC ([1]; P. aeruginosa CFS-1292, MIC underlying the 4×MIC selection) was 0.25 µg/mL and the MIC ([2]; Bank No. 0501, Enterobacter cloacae) was 0.5 µg/mL. It also gave an MIC ([2]; Bank No. 0502, Enterobacter cloacae) of 0.5 µg/mL, an MIC ([2]; Bank No. 0504, Klebsiella pneumoniae) of 0.5 µg/mL and an MIC ([2]; Bank No. 0505, Klebsiella pneumoniae) of 1 µg/mL. The MIC ([2]; Bank No. 0506, Klebsiella pneumoniae) was 1 µg/mL, the MIC ([2]; Bank No. 0507, Klebsiella pneumoniae) was 0.5 µg/mL and the MIC ([2]; Bank No. 0508, Pseudomonas aeruginosa) was 1 µg/mL. It also gave an MIC ([2]; Bank No. 0509, Pseudomonas aeruginosa) of 1 µg/mL, an MIC ([2]; Bank No. 0510, Pseudomonas aeruginosa) of 0.5 µg/mL and an MIC ([2]; Bank No. 0511, Pseudomonas aeruginosa) of 0.5 µg/mL. For the same sequence, the MIC ([2]; Bank No. 0512, Pseudomonas aeruginosa) was 1 µg/mL, the MIC ([2]; Bank No. 0513, Pseudomonas aeruginosa) was 0.5 µg/mL and the MIC ([2]; Bank No. 0514, Pseudomonas aeruginosa) was 1 µg/mL. It also gave an MIC ([2]; Bank No. 0515, Pseudomonas aeruginosa) of 0.5 µg/mL, an MIC ([2]; Bank No. 0516, Pseudomonas aeruginosa) of 0.5 µg/mL and an MIC ([2]; Bank No. 0517, Serratia marcescens) greater than 8 µg/mL. For the same sequence, the MIC ([2]; Bank No. 0518, Pseudomonas aeruginosa) was 1 µg/mL, the MIC ([2]; Bank No. 0519, Morganella morganii) was “ng” and the MIC ([2]; Bank No. 0520, Serratia marcescens) was greater than 8 µg/mL. For the same sequence, the MIC ([2]; Bank No. 0521, Serratia marcescens) was greater than 8 µg/mL, the MIC ([2]; Bank No. 0522, Klebsiella pneumoniae) was 0.5 µg/mL and the MIC ([2]; Bank No. 0523, Klebsiella pneumoniae) was 0.5 µg/mL. For the same sequence, the MIC ([2]; Bank No. 0524, Klebsiella pneumoniae) was 1 µg/mL, the MIC ([2]; Bank No. 0525, Klebsiella pneumoniae) was 1 µg/mL and the MIC ([2]; Bank No. 0526, Pseudomonas aeruginosa) was 2 µg/mL. It also gave an MIC ([2]; Bank No. 0527, Pseudomonas aeruginosa) of 1 µg/mL, an MIC ([2]; Bank No. 0528, Pseudomonas aeruginosa) of 1 µg/mL and an MIC ([2]; Bank No. 0529, Pseudomonas aeruginosa) of 0.5 µg/mL. It also gave an MIC50 ([2]; Imipenem/Relebactam panel) of 0.5 µg/mL and an MIC90 ([2]; Imipenem/Relebactam panel) of 1 µg/mL.
